# Results from patent US7846944B2, “Pyrazolo-pyridinone compounds and methods of use thereof” (Amgen Inc., priority 2007, dated 2010).
# Like-named read-outs stand apart in the source and are kept apart here.
# Experiments:
# [1] = test system: secreted IL-8 by whole blood activated with TNF-α; experiment: Inhibition of TNF-α induced IL-8 in 50% human whole blood; assay type: cell-based; conditions: TNF-α (1 nM) induced IL-8, 50% human whole blood, read-out: WB TNF/IL8 IC50
# Description: Inhibition of TNF-α Induced IL-8 in 50% Human Whole Blood
# Test compounds were evaluated in vitro for the ability to inhibit the production of secreted IL-8 by whole blood activated with TNF-α. Fresh human whole blood was obtained from healthy, non-medicated volunteers in sodium heparin tubes.
# Compound Dilution—Assay Procedure
# 100 ul heparinized whole blood is plated into wells of 96 well flat bottom plates. 50 ul of either 4× compound or DMSO control (Final DMSO concentration is 0.1%) are added to the appropriate wells. Plates are incubated for 1 hour at 37 degrees Celsius. 50 ul of 4×TNF-α ([…], for a final concentration of 1 nM) or control (media alone) is added to the appropriate wells (Total volume=200 ul). Plates are incubated overnight (16-18 hours). 100 ul of supernatant is collected and stored in 96-well round bottom polypropylene plates at −80 degrees Celsius or assayed immediately for IL-8.
# Cytokines are measured on antibody (Ab) sandwich ECL based 96-well detection plates. 20 ul of supernatant are added to plate and plate is sealed and shaken at RT for 1 hour. 130 ul of detection Ab cocktail is added and plates are sealed and shaken for 1 hour in the dark at RT. Plates are read on MSD Sector HTS instrument. Data are analyzed and IC50 values generated using Activity Base and XI-fit programs.
# [2] = test system: TNF-α secretion by LPS-treated THP1 cells; experiment: Lipopolysaccharide-activated THP1 cell TNF production assay; assay type: cell-based; conditions: Homo sapiens, THP-1; LPS, 3 hours, THP1 cells; read-out: IC50 in the THP-1 cellular TNF production assay
# Description: Lipopolysaccharide-Activated THP1 Cell TNF Production Assay
# THP1 cells were resuspended in fresh THP1 media (RPMI 1640, 10% heat-inactivated FBS, 1×PGS, 1×NEAA, plus 30 μM βME) at a concentration of 1.5×10^6 cells per mL. One hundred microliters of cells per well were plated in a polystyrene 96-well tissue culture plate. 1.5 micrograms per mL of bacterial LPS was prepared in THP1 media and transferred to the first 11 columns of a 96-well polypropylene plate. Column 12 contained only THP1 media for the LO control. Compounds were dissolved in 100% DMSO and serially diluted 3 fold in a polypropylene 96-well microtiter plate (drug plate). Columns 6 and 12 were reserved as controls (HI controls and LO controls respectively) and contained only DMSO. 10 μL of LPS followed by one microliter of inhibitor compound from the drug plate was transferred to the cell plate. The treated cells were induced to synthesize and secrete TNF-α in a 37° C. humidified incubator with 5% CO2 for 3 hours. Fifty microliters of conditioned media was transferred to a 96-well MULTI-ARRAY™ 96-well small spot plate—custom coated with MAB610 containing 100 μL of 2× Read Buffer P supplemented with 0.34 nM AF210NA polyclonal Ab labeled with ruthenium (MSD-Sulfo-TAG™-NHS ester). After an overnight incubation at room temperature with shaking, the reaction was read on the Sector Imager™ 6000. […] The amount of secreted TNF-α in the presence of AMG compounds compared with that in the presence of DMSO vehicle alone (HI control) was calculated using the formula: % control (POC)=(cpd−average LO)/(average HI−averageLO)*100. Data (consisting of POC and inhibitor concentration in μM) was fitted to a 4-parameter equation (y=A+((B−A)/(1+((x/C)^D))), where A is the minimum y (POC) value, B is the maximum y (POC), C is the x (cpd concentration) at the point of inflection and D is the slope factor) using a Levenburg-Marquardt non-linear regression algorithm.
# [3] = target: recombinant human p38α (Homo sapiens, UniProt Q16539); experiment: Purified and activated recombinant human p38α HTRF kinase assay; assay type: biochemical; conditions: 1 nM p38α, 50 μM ATP, GST-ATF2 substrate, read-out: p38a IC50
# Description: Purified and Activated Recombinant Human p38α Assay
# • Kinase Reaction Buffer: Kinase reaction buffer for p38α HTRF assays consists of 50 mM Tris-pH 7.5, 5 mM MgCl2, 0.1 mg/mL BSA, 100 μM Na3VO4 and 0.5 mM DTT. • HTRF Detection Buffer: HTRF detection buffer contains 100 mM HEPES-pH 7.5, 100 mM NaCl, 0.1% BSA, 0.05% Tween-20, and 10 mM EDTA. • Serial Dilution of Compounds: Compounds were dissolved in 100% DMSO and serially diluted (3 fold, 10 point) in a polypropylene 96-well microtiter plate (drug plate). The final starting concentration of compounds in the p38α enzymatic assays was 1 μM. Columns 6 and 12 (HI controls and LO controls respectively) in the drug plate were reserved as controls and contained only DMSO. • Kinase Reaction The p38α kinase reactions were carried out in a polypropylene 96-well black round bottom assay plate in total volume of 30 μL kinase reaction buffer. Appropriate concentration of purified and activated enzyme (recombinant human) was mixed with indicated concentration of ATP and 100 nM GST-ATF2-Avitag, in the presence or absence (HI control) of Compound. See table below for actual concentrations. In the absence of substrate, the background was measured as LO control. The reaction was allowed to incubate for 1 hour at RT. • Assay Reagent Concentrations: The final reagent concentrations were 1 nM p38α and 50 μM ATP. […] After 60 minutes incubation at room temperature, the assay plate was read in a Discovery Plate Reader. The wells were excited with coherent 320 nm light and the ratio of delayed ([…] post excitation) emissions at […] (native europium fluorescence) and 665 nm (europium fluorescence transferred to allophycocyanin—an index of substrate phosphorylation) was determined (Park et al, 1999). • Data Analysis: The proportion of substrate phosphorylated in the kinase reaction in the presence of compound compared with that phosphorylated in the presence of DMSO vehicle alone (HI control) was calculated using the formula: % control (POC)=(compound−average LO)/(average HI−average LO)*100. Data (consisting of POC and inhibitor concentration in μM) was fitted to a 4-parameter equation (y=A+((B−A)/(1+((x/C)^D))), where A is the minimum y (POC) value, B is the maximum y (POC), C is the x (compound concentration) at the point of inflection and D is the slope factor, using a Levenburg-Marquardt non-linear regression algorithm.
# The inhibition constant (Ki) of the inhibitor was estimated from the IC50 (compound concentration at the point of inflection C) using the Cheng-Prussof equation: Ki=IC50/(1+S/Km), where S is the ATP substrate concentration, and Km is the Michaelis constant for ATP as determined experimentally. All results were expressed as the mean±the standard error of the mean. Data acquisition and non-linear regression algorithms were performed using Activity Base v5.2 and XL-fit software v4.1 respectively. All data was archived using Activity Base v5.2 software.
# Sequence of recombinant human p38α (Q16539 whole entry): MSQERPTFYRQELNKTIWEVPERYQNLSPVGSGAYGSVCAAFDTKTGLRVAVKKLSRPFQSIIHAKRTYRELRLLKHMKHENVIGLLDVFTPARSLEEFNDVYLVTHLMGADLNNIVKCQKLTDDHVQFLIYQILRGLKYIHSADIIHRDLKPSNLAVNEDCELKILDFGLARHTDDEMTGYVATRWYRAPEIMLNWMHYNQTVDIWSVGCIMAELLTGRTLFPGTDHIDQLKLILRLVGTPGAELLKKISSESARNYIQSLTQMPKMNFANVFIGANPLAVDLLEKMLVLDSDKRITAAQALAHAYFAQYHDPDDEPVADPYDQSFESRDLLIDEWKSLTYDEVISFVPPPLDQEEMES
IC50 ([1]; Homo sapiens),IC50 [1],IC50 [2],IC50 [3],Compound
≤ 100 nM,73.6 nM,≤ 175 nM,–,"Cc1ccc(NC(=O)C2CC2)cc1-c1cc2cnn(-c3ccc(F)cc3F)c2n(C)c1=O [Example 16, N-(3-(1-(2,4-difluorophenyl)-7-methyl-6-oxo-6,7-dihydro-1H-pyrazolo[3,4-b]pyridin-5-yl)-4-methylphenyl)cyclopropanecarboxamide]"
–,–,≤ 175 nM,21 nM,"Cn1c(=O)c(-c2cc(C(=O)NC3CC3)ccc2CO)cc2cnn(-c3c(F)cccc3F)c21 [Example 32, N-cyclopropyl-3-(1-(2,6-difluorophenyl)-7-methyl-6-oxo-6,7-dihydro-1H-pyrazolo[3,4-b]pyridin-5-yl)-4-(hydroxymethyl)benzamide]"
≥ 2500 nM,–,–,–,"Cn1c(=O)c(-c2cc(C#N)ccc2Cl)cc2cnn(-c3c(F)cccc3F)c21 [Example 33, 4-chloro-3-(1-(2,6-difluorophenyl)-7-methyl-6-oxo-6,7-dihydro-1H-pyrazolo[3,4-b]pyridin-5-yl)benzonitrile]"
–,–,≤ 175 nM,2.6 nM,"Cc1ccc(C(=O)NC2CC2)cc1-c1cc2cnn(-c3c(F)cccc3F)c2n(C)c1=S [Example 34, N-cyclopropyl-3-(1-(2,6-difluorophenyl)-7-methyl-6-thioxo-6,7-dihydro-1H-pyrazolo[3,4-b]pyridin-5-yl)-4-methylbenzamide]"
–,–,≤ 175 nM,34 nM,"Cc1ccc(C(=O)NC2CC2)cc1-c1cc2cnn(-c3ccc(F)cc3F)c2n(CC(O)CO)c1=O (stereo not shown) [Example 35, N-cyclopropyl-3-(1-(2,4-difluorophenyl)-7-(2,3-dihydroxypropyl)-6-oxo-6,7-dihydro-1H-pyrazolo[3,4-b]pyridin-5-yl)-4-methylbenzamide]"
261 nM,–,≤ 175 nM,–,"Cc1ccc(NC(=O)NC2CC2)cc1-c1cc2cnn(-c3c(F)cccc3F)c2n(C)c1=O [Example 36, 1-cyclopropyl-3-(3-(1-(2,6-difluorophenyl)-7-methyl-6-oxo-6,7-dihydro-1H-pyrazolo[3,4-b]pyridin-5-yl)-4-methylphenyl)urea]"
326 nM,–,≤ 175 nM,–,"Cc1ccc(N)cc1-c1cc2cnn(-c3ccc(F)cc3F)c2n(C)c1=O [Example 37, 5-(5-amino-2-methylphenyl)-1-(2,4-difluorophenyl)-7-methyl-1,7-dihydro-6H-pyrazolo[3,4-b]pyridin-6-one]"
≤ 100 nM,60 nM,≤ 175 nM,–,"Cc1ccc(N)cc1-c1cc2cnn(-c3c(F)cccc3F)c2n(C)c1=O [Example 39, 5-(5-amino-2-methylphenyl)-1-(2,6-difluorophenyl)-7-methyl-1,7-dihydro-6H-pyrazolo[3,4-b]pyridin-6-one]"
≥ 2500 nM,–,–,–,"Cc1ccc(I)cc1-c1cc2cnn(-c3c(F)cccc3F)c2n(C)c1=O [Example 40, 1-(2,6-difluorophenyl)-5-(5-iodo-2-methylphenyl)-7-methyl-1,7-dihydro-6H-pyrazolo[3,4-b]pyridin-6-one]"
≥ 2500 nM,–,≤ 175 nM,–,"Cn1c(=O)c(-c2cc(C(=O)O)ccc2Cl)cc2cnn(-c3c(F)cccc3F)c21 [Example 42, 4-chloro-3-(1-(2,6-difluorophenyl)-7-methyl-6-oxo-6,7-dihydro-1H-pyrazolo[3,4-b]pyridin-5-yl)benzoic acid]"
≥ 2500 nM,–,–,–,"Cc1ccc(I)cc1-c1cc2cnn(-c3ccc(F)cc3F)c2n(C)c1=O [Example 43, 1-(2,4-difluorophenyl)-5-(5-iodo-2-methylphenyl)-7-methyl-1,7-dihydro-6H-pyrazolo[3,4-b]pyridin-6-one]"
–,–,≤ 175 nM,4.9 nM,"CCn1c(=O)c(-c2cc(C(=O)NC3CC3)ccc2C)cc2cnn(-c3ccc(F)cc3F)c21 [Example 46, N-cyclopropyl-3-(1-(2,4-difluorophenyl)-7-ethyl-6-oxo-6,7-dihydro-1H-pyrazolo[3,4-b]pyridin-5-yl)-4-methylbenzamide]"
662 nM,–,–,–,"Cc1ccc(C(=O)NC2CC2)cc1-c1cc2cnn(S(=O)(=O)C3CC3)c2n(C)c1=O [Example 47, N-cyclopropyl-3-(1-(cyclopropylsulfonyl)-7-methyl-6-oxo-6,7-dihydro-1H-pyrazolo[3,4-b]pyridin-5-yl)-4-methylbenzamide]"
327 nM,–,≤ 175 nM,–,"Cn1c(=O)c(-c2cc(N)ccc2Cl)cc2cnn(-c3c(F)cccc3F)c21 [Example 48, 5-(5-amino-2-chlorophenyl)-1-(2,6-difluorophenyl)-7-methyl-1,7-dihydro-6H-pyrazolo[3,4-b]pyridin-6-one]"
–,–,≤ 175 nM,6.1 nM,"Cc1ccc(C(=O)NC2CC2)cc1-c1cc2cnn(-c3ccc(F)cc3)c2n(C)c1=O [Example 52, N-cyclopropyl-3-(1-(4-fluorophenyl)-7-methyl-6-oxo-6,7-dihydro-1H-pyrazolo[3,4-b]pyridin-5-yl)-4-methylbenzamide]"
–,–,≤ 175 nM,6 nM,"Cn1c(=O)c(-c2cc(C(=O)NC3CC3)ccc2Cl)cc2cnn(-c3ccc(F)cc3)c21 [Example 53, 4-chloro-N-cyclopropyl-3-(1-(4-fluorophenyl)-7-methyl-6-oxo-6,7-dihydro-1H-pyrazolo[3,4-b]pyridin-5-yl)benzamide]"

Compound,IC50 ([1]; Homo sapiens),IC50 [1],IC50 [2],IC50 [3]
"N-cyclopropyl-3-(1-(2,4-difluorophenyl)-7-methyl-6-thioxo-6,7-dihydro-1H-pyrazolo[3,4-b]pyridin-5-yl)-4-methylbenzenecarbothioamide [Example 51]",–,225 nM,–,–
